Experimental data published in ChEMBL document CHEMBL1147278, “Pharmacologically Active Metabolites from Symbiotic Microalgae in Okinawan Marine Invertebrates” (J Nat Prod, 1989).
≈ marks a conversion by molar mass, not a printed value.

Test system: L1210
Assay: Antitumor activity against mouse L1210 cells
Type: functional, cell-based
`C=C1C/C=C/[C@H](O)[C@@H](O)C(=C)[C@@H](O)[C@H](O)C(=C)C/C=C/C(C)=C/C(=O)O[C@H]([C@@H]2O[C@H]2[C@@H](C)CCC)[C@@H](C)C1` [AMPHIDINOLIDE A] showed an IC50 of 2.4 µg/mL (≈ 4.52 µM).
With `C=C1/C=C(\C)[C@](C)(O)C[C@H](O)CC(=O)[C@H](O)[C@@H](O)[C@H](C)C[C@H](C)OC(=O)/C(C)=C/CC/C=C/[C@@H]2O[C@H]2C[C@H](C)C1` [AMPHIDINOLIDE B] the IC50 was 0.00014 µg/mL (≈ 0.000249 µM).
For `C=C1/C=C(\C)[C@@H](C)[C@@H](O)CC(=O)[C@@H](C)CC(=O)C[C@H]2CC[C@@H](O2)[C@H](/C=C/C=C(\C)[C@@H](O)C(=C)CCCC)OC(=O)C[C@@H]2O[C@H](C[C@H]2C)[C@H](O)[C@@H]1O` [AMPHIDINOLIDE C], the IC50 was 0.0058 µg/mL (≈ 0.00811 µM).
Work on `C=C1/C=C(\C)[C@](C)(O)C[C@H](O)CC(=O)[C@@H](O)[C@@H](O)[C@H](C)C[C@H](C)OC(=O)/C(C)=C/CC/C=C/[C@@H]2O[C@H]2C[C@H](C)C1` [AMPHIDINOLIDE D] yielded an IC50 of 0.019 µg/mL (≈ 0.0338 µM).
For `CCCCCCCCCCCCCC/C=C/C(O)C(=O)N[C@@H](CO)[C@H](O)CCCCCCCCCCCCCCC` (some centres undefined) [SYMBIORAMIDE], the IC50 was 9.5 µg/mL (≈ 16.3 µM).

Test system: not listed separately
Assay: Activation of calcium ATPase in sarcoplasmic reticulum at 100 uM
Compound `CCCCCCCCCCCCCC/C=C/C(O)C(=O)N[C@@H](CO)[C@H](O)CCCCCCCCCCCCCCC` (some centres undefined) [SYMBIORAMIDE] has an Activity of 30%.

Target: not listed separately
Assay: Inhibition of sodium potassium ATPase activity
With `CC/C=C\C/C=C\C/C=C\C/C=C\CCCCC(=O)OCC(CO[C@@H]1O[C@H](CO[C@H]2O[C@H](CO)[C@H](O)[C@H](O)[C@H]2O)[C@H](O)[C@H](O)[C@H]1O)OC(=O)CCCC/C=C\C/C=C\C/C=C\C/C=C\CC` (some centres undefined) the IC50 was 20 µM.
Compound `CC/C=C\C/C=C\C/C=C\C/C=C\CCCCC(=O)OCC(CO[C@@H]1O[C@H](CO)[C@H](O)[C@H](O)[C@H]1O)OC(=O)CCCC/C=C\C/C=C\C/C=C\C/C=C\CC` (some centres undefined) has an IC50 of 20 µM.
`CC/C=C\C/C=C\C/C=C\C/C=C\CCCCC(=O)OCC(O)CO[C@@H]1O[C@H](CO)[C@H](O)[C@H](O)[C@H]1O` (some centres undefined) gave an IC50 of 20 µM.
